The values below come from patent US11261190B2, “Dihydropyrimidine compounds and uses thereof in medicine” (SUNSHINE LAKE PHARMA CO., LTD., priority 2017, dated 2022).

Data set [1] is described as follows: Cytotoxicity in HepG2.2.15 cells (CellTiter Glo). In kind it is cell-based. As to conditions: human, highest concentration 150 μM. The method, then: Test 2: Cytotoxicity and Selectivity Index
Methods of Testing Cytotoxicity and Selectivity Index
The serial diluted compound was added to a 384 wells plate at 50 μL HepG2.2.15 cell per well (3000 cells per well), the highest final concentration in the experiment is 150 μM (200 fold dilution). The plate was cultured at 37° C. in an incubator with C02 for 4 days, and cytotoxicity of the compound was detected using CellTiter Glo agent.
The cytotoxicity of the compound was calculated using the following formulate, cytotoxicity (%)=100−(detection value/mean of DMSO control wells values×100). CC50 values were calculated by a four parametric nonlinear regression model using Graphpad Prism 5 software to manage concentration−cytotoxicity (%). […]
(In general: Cellular ATP, detected with luciferase, serves as a proxy for viable cell number.)

For another data set, the system named is HBV. Nature of the data set: Anti HBV activity in vitro, viral DNA from HepG2.2.15 cells quantified by qPCR. In kind it is cell-based. As to conditions: Hepatitis B virus, qPCR of viral DNA in supernatant, read-out: EC50 against HBV replication. The method, then: Test 1: Test Method of EC50 of Anti HBV
HBV Cell Line and Culture Conditions
HepG2.2.15 (SELLS, PNAS, 1987 and SELLS, JV, 1988) chromosomes have an integrated complete HBV genome, and stably express viral RNA and viral protein. HepG2.2.15 cells can secrete mature HBV particles, HBsAg and HBeAg to medium. HepG2.2.15 cells were cultured in DMEM containing 10% fetal bovine serum, 100 U/mL penicillin, 100 U/mL streptomycin, 1% non essential amino acid, 1 mM sodium pyruvate and 300 µg/mL G418.
Viral particles DNA secreted from HepG2.2.15 cells can be quantified by qPCR, and the effect of the compound on viral replication can be detected.
Test of Anti HBV Activity In Vitro
8000 HepG 2.2.15 cells per well were seeded into a 96-well plate, the plate was cultured at 37° C. and 5% CO2 for 3 days till the cells grew to full wells. Old liquid medium can be removed and replaced with new medium (200 μL) on day 0.
Formulating the compound and treating the cells in the experiment of anti virus: the compound was dissolved in DMSO to a concentration of 30 mM, and then the compound solution was diluted with DMSO to a concentration of […], and then eight dilutions at 4 fold were performed, the highest concentration is 800 μM. The serial diluted compound was added to the above plate at 1 μL per well, the highest final concentration in the experiment is 4 μM (200 fold dilution). TDF (tenofovir dipiroxil fumarate, Selleck, Cat S1400) has a highest concentration of 4 μM as a positive control. 1 μL of DMSO was added in to the positive control well at a final concentration of 0.5%, TDF was added in to the positive control well at a final concentration of 1 μM.
Detection of Viral Genomic DNA by qPCR
Primer: HBV-For-202, […]; HBV-Rev-315, […]. Copies of virus can be calculated using a standard curve plotted by using plasmid containing HBV genome and using SYBR Premix Ex Taq II Takara DRR081S kit and 1 μL cell culture supernatant as a template. EC50 values of the compound on viral replication were calculated by a four parametric nonlinear regression model using Graphpad Prism 5 software to manage concentration—viral copy number.

In general, CC50 refers to the concentration that lowers cell viability or growth by half. A higher CC50 goes with better tolerance by the cells. For orientation: EC50 means the concentration giving half of the maximal effect. In data set [1], `CCOC(=O)C1=C(CN2CCN3C(=O)N(c4ccc(CCC(=O)O)cc4)C[C@@H]3C2)NC(c2nccs2)=N[C@H]1c1ccc(F)cc1Br` [Example 22, 3-(4-((S)-7-(((R)-6-(2-bromo-4-fluorophenyl)-5-(ethoxycarbonyl)-2-(thiazol-2-yl)-3,6-dihydropyrimidin-4-yl)methyl)-3-oxohexahydroimidazo[1,5-a]pyrazin-2(3H)-yl)phenyl)prop ionic Acid] gave a CC50 at 4 days of over 150000 nM. In addition, the EC50 in the data set with HBV worked out at 5 nM.

`CCOC(=O)C1=C(CN2CCN3C(=O)N(c4ccc(CCC(=O)O)cc4)C[C@@H]3C2)NC(c2nccs2)=N[C@H]1c1ccc(F)cc1Cl` [Example 23, 3-(4-((S)-7-(((R)-6-(2-chloro-4-fluorophenyl)-5-(ethoxycarbonyl)-2-(thiazol-2-yl)-3,6-dihydropyrimidin-4-yl)methyl)-3-oxohexahydroimidazo[1,5-a]pyrazin-2(3H)-yl)phenyl)prop ionic Acid] showed a CC50 at 4 days in data set [1] of over 150000 nM. In the data set on HBV, the EC50 stood at 7 nM.

`COC(=O)C1=C(CN2CCN3C(=O)N(c4ccc(CCC(=O)O)cc4)C[C@@H]3C2)NC(c2nccs2)=N[C@H]1c1ccc(Cl)cc1Cl` [Example 24, 3-(4-((S)-7-(((R)-6-(2,4-dichlorophenyl)-5-(methoxycarbonyl)-2-(thiazol-2-yl)-3,6-dihydropyrimidin-4-yl)methyl)-3-oxohexahydroimidazo[1,5-a]pyrazin-2 (3H)-yl)phenyl)propionic Acid] came in with a CC50 at 4 days in data set [1] of over 150000 nM. Besides, the EC50 in the data set with HBV was determined as 4 nM.

Turning to `COC(=O)CCc1ccc(N2C[C@@H]3CN(CC4=C(C(=O)OC)[C@H](c5ccc(F)cc5Cl)N=C(c5nccs5)N4)CCN3C2=O)cc1` [Example 25, (R)-methyl 4-(2-chloro-4-fluorophenyl)-6-(((S)-2-(4-(3-methoxy-3-oxopropyl)phenyl)-3-oxohexahydroimidazo[1,5-a]pyrazin-7(1H)-yl)methyl)-2-(thiazol-2-yl)-1,4-dihydropyrimidine-5-carboxylate], in data set [1], the CC50 at 4 days was over 150000 nM. Also, the EC50 with HBV was found to be 5 nM.

`CCOC(=O)C1=C(CN2CCN3C(=O)N(c4ccc(CC(=O)O)cc4)C[C@@H]3C2)NC(c2nccs2)=N[C@H]1c1ccc(F)cc1Br` [Example 26, 2-(4-((S)-7-(((R)-6-(2-bromo-4-fluorophenyl)-5-(ethoxycarbonyl)-2-(thiazol-2-yl)-3,6-dihydropyrimidin-4-yl)methyl)-3-oxohexahydroimidazo[1,5-a]pyrazin-2(3H)-yl)phenyl)acetic Acid] had a CC50 at 4 days in data set [1] of over 150000 nM. The EC50 in the data set on HBV turned out to be 8 nM.

As for `COC(=O)C1=C(CN2CCN3C(=O)N(c4ccc(CC(=O)O)cc4)C[C@@H]3C2)NC(c2nccs2)=N[C@H]1c1ccc(Cl)cc1Cl` [Example 27, 2-(4-((S)-7-(((R)-6-(2,4-dichlorophenyl)-5-(methoxycarbonyl)-2-(thiazol-2-yl)-3,6-dihydropyrimidin-4-yl)methyl)-3-oxohexahydroimidazo[,5-a]pyrazin-2(3H)-yl)phenyl)acetic Acid], the CC50 at 4 days in data set [1] was over 150000 nM. In addition, the EC50 in the data set with HBV was 7 nM.

`CCOC(=O)C1=C(CN2CCN3C(=O)N(c4ccc(CC(C)(C)C(=O)O)cc4)C[C@@H]3C2)NC(c2nccs2)=N[C@H]1c1ccc(F)cc1Br` [Example 28] displayed a CC50 at 4 days in data set [1] of over 150000 nM. Also, the EC50 in the data set on HBV is 5 nM.

For the compound `CCOC(=O)C1=C(CN2CCN3C(=O)N(c4ccc(CC(C)(C)C(=O)O)cc4)C[C@@H]3C2)NC(c2nccs2)=N[C@H]1c1ccc(F)cc1Cl` [Example 29, 3-(4-((S)-7-(((R)-6-(2-chloro-4-fluorophenyl)-5-(ethoxycarbonyl)-2-(thiazol-2-yl)-3,6-dihydropyrimidin-4-yl)methyl)-3-oxohexahydroimidazo[1,5-a]pyrazin-2(3H)-yl)phenyl)-2,2-dimethylpropionic Acid], in data set [1], the CC50 at 4 days is over 150000 nM. Besides, in the data set with HBV, the EC50 stood at 6 nM.
